Test: Solubility evaluation in combinations of solvent systems
Format: physicochemical
Protocol: In addition, the solubility of nalmefene in varying concentrations was evaluated using different combinations of solvent systems. The solvent systems included combinations of polar solvents with different surface active agents. Exemplary surface active agents included: Tween 20, Tween 80, […]® 34/44, KOLLIPHOR® HS 15, SOLUTOL® NF, LABRAFIL® M2125 CS and LABRAFIL® M1944 CS.

Measured: Observation (solubility)

C=C1CC[C@@]2(O)[C@H]3Cc4ccc(O)c5c4[C@@]2(CCN3CC2CC2)[C@H]1O5 [nalmefene]
Completely Soluble,: ID 1, Ethanol:Water 75:25, nalmefene 200 mg/mL | ID 2 (second), Ethanol:Water:Propylene Glycol 82.5:12.5:5, nalmefene 200 mg/mL | ID 2, Ethanol:Water:Tween 20 75:24.5:0.5, nalmefene 250 mg/mL | ID 3, Ethanol:Water:Propylene Glycol 68:22:10, nalmefene 350 mg/mL | ID 5, Ethanol:Water:Propylene Glycol:Tween 80 70:25:4:1, nalmefene 350 mg/mL | ID 6, Ethanol:Water:Glycerine 70:20:10, nalmefene 300 mg/mL | ID 7, Ethanol:Water:Gelucire 34/14 75:20:5, nalmefene 200 mg/mL | ID 8, Ethanol:Water:Labrafil M2125 CS 80:17.5:2.5, nalmefene 200 mg/mL | ID 9, Ethanol:Water:Labrafil M1944 CS 80:17.5:2.5, nalmefene 200 mg/mL

— patent US11504342B2, “Transmucosal film composition and methods of making and using the same” (Avior, Inc., priority 2018, dated 2022)
